For one compound, Kd and inhibition results are on record in publication PMC4376699, “Characterization of Binding and Inhibitory Properties of TAK-063, a Novel Phosphodiesterase 10A Inhibitor” (PLoS ONE, 2015).

The target of experiment [1] is T1, Phosphodiesterase 10A (PDE10A) (Rattus norvegicus, UniProt Q9QYJ6).
T1 construct: native PDE10A in rat brain sections
T1 sequence (Q9QYJ6 1-794): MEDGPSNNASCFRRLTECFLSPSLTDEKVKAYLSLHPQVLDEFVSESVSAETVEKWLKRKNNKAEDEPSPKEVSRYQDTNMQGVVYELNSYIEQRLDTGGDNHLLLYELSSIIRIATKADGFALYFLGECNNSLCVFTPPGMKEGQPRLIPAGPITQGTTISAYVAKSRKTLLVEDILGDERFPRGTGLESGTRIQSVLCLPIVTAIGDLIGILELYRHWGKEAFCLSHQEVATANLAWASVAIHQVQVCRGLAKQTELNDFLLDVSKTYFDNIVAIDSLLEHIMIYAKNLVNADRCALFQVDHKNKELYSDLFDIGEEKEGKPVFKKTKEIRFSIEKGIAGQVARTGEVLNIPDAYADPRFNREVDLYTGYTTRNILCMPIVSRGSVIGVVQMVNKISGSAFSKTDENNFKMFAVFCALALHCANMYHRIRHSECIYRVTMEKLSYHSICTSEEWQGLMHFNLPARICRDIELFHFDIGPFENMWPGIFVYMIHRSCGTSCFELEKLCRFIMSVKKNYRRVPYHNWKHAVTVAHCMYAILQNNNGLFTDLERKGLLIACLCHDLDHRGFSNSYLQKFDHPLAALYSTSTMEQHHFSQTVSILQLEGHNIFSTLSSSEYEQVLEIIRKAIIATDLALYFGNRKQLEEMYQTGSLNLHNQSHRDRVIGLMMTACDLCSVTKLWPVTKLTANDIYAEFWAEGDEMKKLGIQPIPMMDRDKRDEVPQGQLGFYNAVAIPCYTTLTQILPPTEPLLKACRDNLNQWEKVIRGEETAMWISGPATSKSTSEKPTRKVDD
The experiment in a line: [3H]TAK-063 saturation binding on rat brain sections (autoradiography); Kd […] NAc shell, […] CPu.

The target in experiment [2] is T2, Phosphodiesterase PDE10A1 (Homo sapiens, UniProt Q9Y233).
T2 construct: gene PDE10A; PDE10A1
T2 sequence (Q9Y233 1-779 isoform Q9Y233-1): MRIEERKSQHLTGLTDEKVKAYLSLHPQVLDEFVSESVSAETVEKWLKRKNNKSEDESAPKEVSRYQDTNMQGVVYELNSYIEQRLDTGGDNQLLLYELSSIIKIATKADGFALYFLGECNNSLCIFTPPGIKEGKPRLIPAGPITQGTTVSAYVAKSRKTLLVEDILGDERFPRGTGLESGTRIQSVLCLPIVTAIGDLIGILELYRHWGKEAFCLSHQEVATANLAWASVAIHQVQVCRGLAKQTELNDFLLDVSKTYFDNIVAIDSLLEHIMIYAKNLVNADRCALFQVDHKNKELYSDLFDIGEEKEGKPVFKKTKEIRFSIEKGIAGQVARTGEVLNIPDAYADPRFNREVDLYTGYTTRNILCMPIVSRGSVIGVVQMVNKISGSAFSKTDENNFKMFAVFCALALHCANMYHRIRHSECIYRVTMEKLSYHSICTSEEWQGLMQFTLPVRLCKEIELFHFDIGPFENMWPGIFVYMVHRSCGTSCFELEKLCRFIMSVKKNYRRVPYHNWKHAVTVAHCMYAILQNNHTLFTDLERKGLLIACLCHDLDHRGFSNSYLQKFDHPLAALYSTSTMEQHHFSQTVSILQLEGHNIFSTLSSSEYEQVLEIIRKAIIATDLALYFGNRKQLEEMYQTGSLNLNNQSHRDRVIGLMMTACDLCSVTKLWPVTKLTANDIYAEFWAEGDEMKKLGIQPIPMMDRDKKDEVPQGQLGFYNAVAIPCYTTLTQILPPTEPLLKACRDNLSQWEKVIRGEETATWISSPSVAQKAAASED
Briefly: enzyme inhibition panel at […] (Ricerca Biosciences), […] inhibition. It counts as biochemical.

For the compound `COc1cn(-c2ccc(-n3cccn3)cc2F)nc(-c2ccnn2-c2ccccc2)c1=O` [TAK-063, 1-[2-fluoro-4-(1H-pyrazol-1-yl)phenyl]-5-methoxy-3-(1-phenyl-1H-pyrazol-5-yl)-pyridazin-4(1H)-one], in experiment [1], the Kd was found to be 2.6 nM. In experiment [2], the inhibition at 10 µM turned out to be 101%.
